Each compound was assayed against T1, NS5B (Hepatitis C virus genotype 1b, UniProt Q9WMX2) (assay: Polymerase assay, incorporation of radiolabeled GTP with biotinylated oligoG13 primer and polycytidylic acid RNA template). Details: polyC RNA template, biotin-oligoG13 primer, tritiated GTP, 3 nM NS5B, 30° C., 2 hours.
T1 construct: 3 nM NS5B, 20 nM polyC RNA template
Type: biochemical
Method: The polymerase activity was also assayed by measuring incorporation of radiolabeled GTP into an RNA product using a biotinylated oligoG13 primer with a polycytidylic acid RNA template. Typically, the assay mixture (40 μL) contains 50 mM HEPES (pH 7.3), 2.5 mM magnesium acetate, 2 mM sodium chloride, 37.5 mM potassium acetate, 5 mM DTT, 0.4 U/mL RNasin, 2.5% glycerol, 3 nM NS5B, 20 nM polyC RNA template, 20 nM biotin-oligoG13 primer, and 0.2 μM tritiated guanosine triphosphate. Test compounds were initially dissolved and diluted in 100% DMSO and further diluted into aqueous buffer, producing a final concentration of 5% DMSO. Typically, compounds were tested at concentrations between 0.2 nM and 10 μM. Reactions were started with addition of tritiated guanosine triphosphate and allowed to continue at 30° C. for 2 hours. Reactions were quenched with 100 μL stop buffer containing 10 mM EDTA and 1 μg/mL streptavidin-coated scintillation proximity beads. Reaction plates were incubated at 4° C. for 10 hours and then incorporation of radioactivity was determined by scintillation counting. The table below lists the IC50 values of compounds determined using this procedure.

T1 sequence (Q9WMX2 2420-3010): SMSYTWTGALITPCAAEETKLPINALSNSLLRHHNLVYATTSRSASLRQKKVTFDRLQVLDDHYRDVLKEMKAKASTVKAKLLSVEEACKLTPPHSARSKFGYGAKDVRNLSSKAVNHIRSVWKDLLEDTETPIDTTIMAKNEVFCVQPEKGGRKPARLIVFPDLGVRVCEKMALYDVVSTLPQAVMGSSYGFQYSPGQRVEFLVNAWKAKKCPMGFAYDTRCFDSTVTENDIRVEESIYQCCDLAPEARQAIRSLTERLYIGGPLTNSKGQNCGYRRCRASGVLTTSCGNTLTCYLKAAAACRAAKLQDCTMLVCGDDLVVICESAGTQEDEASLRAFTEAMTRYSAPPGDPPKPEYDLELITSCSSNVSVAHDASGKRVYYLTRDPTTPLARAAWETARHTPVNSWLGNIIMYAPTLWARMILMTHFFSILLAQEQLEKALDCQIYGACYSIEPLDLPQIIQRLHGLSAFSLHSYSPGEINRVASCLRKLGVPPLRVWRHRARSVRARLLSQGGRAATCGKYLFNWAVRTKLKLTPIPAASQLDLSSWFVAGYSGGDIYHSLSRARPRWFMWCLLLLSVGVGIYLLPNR

Row | Compound | IC50 [nM]
1 | CCN(C)Cc1c(C(=O)N(C)C)n2c3c(cccc13)-c1c(C3CCCCC3)c3ccc(C(=O)O)cc3n1CC2 [Compound 312] | 4
2 | CC(C)N1CCCC[C@H]1C(=O)N(C)Cc1c(C(=O)N(C)C)n2c3c(cccc13)-c1c(C3CCCCC3)c3ccc(C(=O)O)cc3n1CCC2 [Compound 313] | 2
3 | CN(C)C(=O)c1c(CN(C)C(=O)C(C)(C)N2CCCC2)c2cccc3c2n1CCCn1c-3c(C2CCCCC2)c2ccc(C(=O)O)cc21 [Compound 314] | 11
4 | CCN(C)Cc1c(C(=O)N(C)C)n2c3c(cccc13)-c1c(C3CCCCC3)c3ccc(C(=O)NS(=O)(=O)N(C)C)cc3n1CCC2 [Compound 315] | 2
5 | CCN(C)Cc1c(C(=O)N(CC)CC)n2c3c(cccc13)-c1c(C3CCCCC3)c3ccc(C(=O)O)cc3n1CCC2 [Compound 317] | 5
6 | CCN(C)Cc1c(C(=O)N2CCN(S(C)(=O)=O)CC2)n2c3c(cccc13)-c1c(C3CCCCC3)c3ccc(C(=O)O)cc3n1CCC2 [Compound 318] | 9
7 | CCN(C)Cc1c(C(=O)N2CCCC2)n2c3c(cccc13)-c1c(C3CCCCC3)c3ccc(C(=O)O)cc3n1CCC2 [Compound 320] | 3
8 | CCN(C)Cc1c(C(=O)NS(=O)(=O)N(C)C)n2c3c(cccc13)-c1c(C3CCCCC3)c3ccc(C(=O)O)cc3n1CCC2 [Compound 321] | 8
9 | CCN(C)Cc1c(C(=O)N(C)Cc2ccccc2)n2c3c(cccc13)-c1c(C3CCCCC3)c3ccc(C(=O)O)cc3n1CCC2 [Compound 323] | 9
10 | CCN(C)Cc1c(C(=O)N2CCC(N(C)C)CC2)n2c3c(cccc13)-c1c(C3CCCCC3)c3ccc(C(=O)O)cc3n1CCC2 [Compound 324] | 6
11 | CCN(C)Cc1c(C(=O)N2CCN(C(C)=O)CC2)n2c3c(cccc13)-c1c(C3CCCCC3)c3ccc(C(=O)O)cc3n1CCC2 [Compound 325] | 7
12 | CCN(C)Cc1c(C(=O)N2CC[C@@H](NC(C)=O)C2)n2c3c(cccc13)-c1c(C3CCCCC3)c3ccc(C(=O)O)cc3n1CCC2 [Compound 326] | 6
13 | NC1CCN2CCn3c(c(C4CCCCC4)c4ccc(C(=O)O)cc43)-c3ccc(F)c1c32 (centres unmarked) [Compound 448] | 5.05

Now from value to compound:

Row | IC50 [nM] | Compound
14 | 9 | O=C(O)c1ccc2c(C3CCCCC3)c3n(c2c1)CCCn1cc(CNS(=O)(=O)C2CC2)c2cccc-3c21 [Compound 304, 12-Cyclohexyl-1-{[(cyclopropylsulfonyl)amino]methyl}-5,6-dihydro-4H-[1,5]diazocino[1,2-a:5,4,3-h′i′]diindole-9-carboxylic acid]
15 | 8 | CCN(CC)Cc1c(C(=O)N(C)C)n2c3c(cccc13)-c1c(C3CCCCC3)c3ccc(C(=O)O)cc3n1CCC2 [Compound 306]
16 | 4 | CN(C)C(=O)c1c(CN2CCCCC2)c2cccc3c2n1CCCn1c-3c(C2CCCCC2)c2ccc(C(=O)O)cc21 [Compound 307]
17 | 7 | CN(C)C(=O)c1c(CNC2CCOCC2)c2cccc3c2n1CCCn1c-3c(C2CCCCC2)c2ccc(C(=O)O)cc21 [Compound 308]
18 | 6 | CN(C)C(=O)c1c(CN2CCCC2)c2cccc3c2n1CCCn1c-3c(C2CCCCC2)c2ccc(C(=O)O)cc21 [Compound 309]
19 | 6 | CN(C)C(=O)c1c(CNS(=O)(=O)C2CC2)c2cccc3c2n1CCCn1c-3c(C2CCCCC2)c2ccc(C(=O)O)cc21 [Compound 310]
20 | 5 | CN(C)C(=O)c1c(CN2CCOCC2)c2cccc3c2n1CCCn1c-3c(C2CCCCC2)c2ccc(C(=O)O)cc21 [Compound 311]
21 | 5 | CCN(C)Cc1c(C(=O)N(C)C)n2c3c(cccc13)-c1c(C3CCCCC3)c3ccc(C(=O)NS(=O)(=O)C4CC4)cc3n1CCC2 [Compound 316]
22 | 11 | CCN(C)Cc1c(C(=O)NC2CC2)n2c3c(cccc13)-c1c(C3CCCCC3)c3ccc(C(=O)O)cc3n1CCC2 [Compound 319]
23 | 9 | CCN(C)Cc1c(C(=O)NS(=O)(=O)C2CC2)n2c3c(cccc13)-c1c(C3CCCCC3)c3ccc(C(=O)O)cc3n1CCC2 [Compound 322]

— patent US20090197856A1, “ANTIVIRAL COMPOUNDS” (Genelabs Technologies, Inc., priority 2007, published 2009)
